Laboratory results taken from patent US20090028943A1, “PHARMACEUTICAL COMPOSITIONS” (priority 2005, published 2009).

Tests used:
[1] = stability of AZD2171 (hydrolysis, oxidation); type: physicochemical
Text: In order to counteract the plasticity of a drug such as AZD2171 a person skilled in the art would typically try to modify the material's properties with the addition of a complementary excipient such as a brittle filler. However this can limit the drug loading that can be achieved in a formulation, i.e. the percentage of active ingredient therein, and can lead to very large tablets which are difficult to swallow. […] Initial test formulations of AZD2171 were therefore limited to the use of two […] fillers namely lactose and mannitol. The test formulations comprised: […]

range of models = conditions: once-daily oral administration; cited from earlier work
Calu-6 tumour xenograft = test: in vivo solid tumour model; conditions: once-daily oral, 28 days
[2] = tested on: VEGF-stimulated endothelial cell proliferation (HUVEC); test: HUVEC assay, VEGF-stimulated proliferation; type: cell-based; conditions: Homo sapiens
[3] = tested on: basal endothelial cell proliferation (HUVEC); test: HUVEC assay, basal proliferation; type: cell-based; conditions: Homo sapiens

- compatibility with brittle filler dibasic calcium phosphate dihydrate [1]: showed hydrolysis
- stability ([1]; degradation by hydrolysis and oxidation): relatively poor stability
Compound: COc1cc2c(Oc3ccc4[nH]c(C)cc4c3F)ncnc2cc1OCCCN1CCCC1 [AZD2171, 4-(4-fluoro-2-methyl-1H-indol-5-yloxy)-6-methoxy-7-(3-(pyrrolidin-1-yl)propoxy)quinazoline]
- anti-tumour activity in a range of models (range of models): broad-spectrum anti-tumour activity
- inhibition of growth of Calu-6 tumour xenograft (Calu-6 tumour xenograft; 1.5 mg/kg/day): 49%
- inhibition of growth of Calu-6 tumour xenograft (Calu-6 tumour xenograft; 3 mg/kg/day): 69%
- inhibition of growth of Calu-6 tumour xenograft (Calu-6 tumour xenograft; 6 mg/kg/day): 91%
- IC50 [2]: 0.4 ± 0.2 nM
- IC50 [3]: > 500 nM
